Experimental data published in patent publication US20130022640A1, “IMMUNE MODULATORS RELATING TO FOXO3A” (Secretary, Department of Health and Human Services, priority 2010, published 2013).

Key:
TRAMP mice = assay: UGT and prostate weights (tumor burden) after TcR-I transfer; type: in vivo, mouse; settings: day 12 after TcR-I transfer, vs control/untreated
Protocol: (§1) Lymph node (LN) cells from TcR-I mice were prepared in a single-cell suspension. Cell numbers were adjusted to 3×10^6 TcR-I cells to be transferred intravenously (i.v.) into recipient mice. In some experiments, inhibitors to IDO (1-methly-D-tryptophan, 1MDT) and arginase ((S) 2-bronoethyl)-L-cysteine (BEC)) were added to the drinking water every 3 days (5 μg/ml).
(§2) A blocking anti-PD-1 antibody (Ab) (clone RMP1-14) (Yamazaki et al., J. Immunol., 175: 1586-1592 (2005)) was administered by intraperitoneal (i.p.) injection on days 0, 1, and 3 with respect to adoptive transfer of TcR-I T cells (250 μg/injection). Anti-TGF-β Ab was injected i.p. on days −1,0,1 and 2 with respect to TcR-I transfer (500 μg/injection). Anti-CD317 Ab (5 μg) (kindly provided by Dr. Marco Colonna) was injected i.p. on days −1 and 0 with respect to TcR-I transfer (Blasius et al., J. Immunol., 177: 3260-3265 (2006)).
Control antibody or anti-CD317 antibody was injected i.p. into TRAMP mice on days −1 and 0 relative to T cell transfer. Weights of total urogenital tract (UGT) and dissected prostates were obtained at day 12. […]
Given the enhanced effector functions seen following inhibitory molecule blockade, the effect of blocking these suppressive mediators on anti-tumor immunity was tested. […] UGT weights (FIG. 7A) and prostate weights (FIG. 7B) were assessed on day 12 after TcR-I transfer.

TcR-I T cells [1] = assay: In vitro TcR-I proliferation and tolerance with TRAMP DCs and blocking agents; type: cell-based, mouse
Protocol: Naïve TcR-I T cells were used as responder cells in a proliferation assay; 2×10^4 T cells were stimulated with antigen and 2×10^4 isolated prostatic DCs. After 72 h of culture, wells were pulsed with 1 μCi [^3H] thymidine (Amersham, Buckinghamshire, England) for 16 h. The cells were then harvested using a Cell Harvester (Tomtec, Hamden, Conn.) and radioactivity was measured in a Liquid Scintillation Counter (WALLAC MICROBETA™ TriLux, PerkinElmer, Waltham, Mass.).
Naïve TcR-I T cells were co-cultured with DC for 72 hours. TcR-I cells were then re-isolated via negative selection with magnetic beads. To assess tolerance, TcR-I T cells were subjected to secondary stimulation with normal splenocytes and TAg. After 48 hours, wells were pulsed with 1 μCi [^3H] thymidine (Amersham, Buckinghamshire, England) for 12 hours. […] One μCi of [^3H] thymidine per well was added for an additional 16 h and harvested as described above.
(§3) To investigate the effects of blocking IDO in vitro, 1MDT was also added to purified DC cultures to inhibit IDO activity during DC stimulation of TcR-I proliferation (FIG. 6A). Tolerance was assessed by testing secondary stimulation 4 days after primary culture with 1 MDT, a blocking agent to suppressive mediator IDO (FIG. 6D).
To investigate the effects of blocking PD-1 in vitro, anti-PD-1 antibody was added to cultures of TcR-I T cells and TRAMP or WT prostate DCs. Tolerance was assessed by testing secondary stimulation 4 days after primary culture with blocking agents, including anti-PD-1 antibody, to suppressive mediators (FIG. 6D).

TcR-I T cells [2] = assay: ELISPOT (IFN-γ, granzyme B) of TcR-I T cells re-isolated from treated TRAMP mice; type: in vivo, mouse
Protocol: as §1, §2
Multiscreen plates (Millipore, Billerica, Mass.) were coated with 100 μl of capture Ab (R&D Systems Inc., Minneapolis, Minn.) overnight at 4° C. IFN-γ (1×10^5) or granzyme B (2×10^4) purified Thy 1.1^+ TcR T cells were added to increasing concentrations of TAg560-568. After incubation, plates were washed and processed as previously described (Shafer-Weaver et al., Cancer Research, 69: 6256-6264 (2009)).
It was next determined whether in vivo depletion of TADCs enhanced TcR-I effector function. TADCs were depleted via i.p. injection of anti-CD317 Ab into TRAMP mice. TcR-I T cells were then transferred into TRAMP mice with or without DC depletion. T cells were re-isolated on days 6 (FIGS. 3A and 3B) or 12 (FIGS. 3C and 3D) after transfer to assess CTL effector function.
Selective amino acid catabolism is a previously-described mechanism of immune dysfunction in cancer (Bronte et al., J. Exp. Med., 201: 1257-1268 (2005); Sharma et al., J. Clin. Invest., 117: 2570-2582 (2007); Srivastava et al., Cancer Res., 70: 68-77 (2010)). […]

TcR-I T cells [3] = assay: In vitro suppressor assay after 4 day culture of TcR-I T cells with TRAMP DC and blocking agents; type: cell-based, mouse; settings: TRAMP DC + agent
Protocol: Naïve TcR-I T cells were co-cultured with DC for 72 hours. TcR-I cells were then re-isolated via negative selection with magnetic beads. To assess tolerance, TcR-I T cells were subjected to secondary stimulation with normal splenocytes and TAg. After 48 hours, wells were pulsed with 1 μCi [^3H] thymidine (Amersham, Buckinghamshire, England) for 12 hours. To assess suppressor activity, graded numbers of TcR-I T cells were added to 1×10^4 responder 37B7 TRP-2-specific T cells (Singh et al., J. Immunother., 32: 129-139 (2009)), 1×10^5 splenocytes, and 5 μM TRP-2, and incubated for 72 h at 37° C. One μCi of [^3H] thymidine per well was added for an additional 16 h and harvested as described above.
as §3
To investigate the effects of blocking PD-1 in vitro, anti-PD-1 antibody was added to cultures of TcR-I T cells and TRAMP or WT prostate DCs. Tolerance was assessed by testing secondary stimulation 4 days after primary culture with blocking agents, including anti-PD-1 antibody, to suppressive mediators (FIG. 6D). Suppressor activity was also measured after 4 day culture with blocking agents, including anti-PD-1 antibody, and the results are shown in Table 9.

[4] = 6 days after transfer into TRAMP mice, vs untreated/control Ab

Row | SMILES | prostate weight (TRAMP mice) | total urogenital tract (UGT) weight (TRAMP mice) | TADC-stimulated TcR-I proliferation (TcR-I T cells [1]; agent added to in vitro culture, primary stimulation) | tolerization of TcR-I T cells during co-culture (TcR-I T cells [1]; secondary stimulation 4 days after primary culture with agent) | IFN-γ secretion by TcR-I T cells (TcR-I T cells [2]; [4]) | granzyme B secretion by TcR-I T cells (TcR-I T cells [2]; [4]) | TcR-I T cell antigen responsiveness (TcR-I T cells [2]; day 12 after transfer / 12 days of treatment, TRAMP mice) | % Suppression for Each Source of Primary Stimulation (TcR-I T cells [3]; Suppressor:Responder 1:1) [%] | % Suppression for Each Source of Primary Stimulation (TcR-I T cells [3]; Suppressor:Responder 1:2) [%] | % Suppression for Each Source of Primary Stimulation (TcR-I T cells [3]; Suppressor:Responder 1:4) [%] | % Suppression for Each Source of Primary Stimulation (TcR-I T cells [3]; Suppressor:Responder 2:1) [%] | TcR-I responsiveness (block of in vitro tolerization) (TcR-I T cells [1]; blocking ARG in vitro)
1 | Cn1cc(C[C@@H](N)C(=O)O)c2ccccc21 [1MDT, 1-methyl-D-tryptophan] | statistically significant decrease | statistically significant decrease | enhanced | did not prevent them from becoming tolerized | significantly increased | significantly increased | loss of antigen responsiveness | 20 | 15 | 8 | 30 | –
2 | N=C(NO)NCC[C@H](N)C(=O)O [Nor-NOHA] | – | – | – | – | – | – | – | – | – | – | – | did not enhance TcR-I responsiveness
